Measured values as given in US12564630B2, “Vaccine adjuvants” (priority 2020, dated 2026).

How the values were obtained:
[1] = Chemisorption to aluminum hydroxide ("Alum") quantified by liquid chromatography-mass spectrometry; type: physicochemical
From the text: Chemisorption was quantified by liquid chromatography-mass spectrometry. When appropriate ratios of the adjuvant and aluminum hydroxide are used, all of the adjuvant is bound to alum. This ensures delivery of the adjuvant to the draining lymph nodes, and minimizes systemic exposure. It is important not to exceed the ratio to avoid the presence of excess small molecule adjuvant. […] The ratio can range from 1:10 (mg Compound 1:mL aluminum hydroxide gel) to 10:1, or from 1:8 to 8:1, or 1:5 to 5:1; or 1:2 to 2:1, or about 1:1.
The Compound is chemisorbed onto aluminum hydroxide to form an adjuvant complex referred to herein as (“Alhydroxiquim-II”). The trihydroxybenzyl appendage of the adjuvant Compound 1 ligand-exchanges with the hydroxyl groups of aluminum hydroxide (chemisorption). When appropriate ratios of the adjuvant and aluminum hydroxide are used, all of the adjuvant is bound to alum. This ensures delivery of the adjuvant to the draining lymph nodes, and minimizes systemic exposure. It is important not to exceed the ratio to avoid the presence of excess small molecule adjuvant.
Chemisorption was quantified by liquid chromatography-mass spectrometry.

[2] = human trials; cited from earlier work
[3] = 10 mg of the small-molecule to 10 mL of standard Alhydrogel (10 mg of aluminum content/mL)

SMILES | binding to aluminum hydroxide gel (Alhydrogel) [1, 3] | concentrations of free small molecule [1, 3] | chemisorption to “Alum” ([1]; quantified by LC-MS, FIG. 2) | tolerability (systemic side effects including fever, headache, malaise, and myalgia) [2]
CCCCc1nc2c(N)nc3ccccc3c2n1Cc1cccc(CNC(=O)c2cc(O)c(O)c(O)c2)c1 [Compound 1, N-(3-((4-amino-2-butyl-1H-imidazo[4,5-c]quinolin-1-yl)methyl)benzyl)-3,4,5-trihydroxybenzamide] | complete binding | undetectable | saturable | –
CCOCc1nc2c(N)nc3ccccc3c2n1CC(C)(C)O [Resiquimod] | – | – | – | poorly tolerated
